Assay results from the NIST ThermoML archive (doi:10.1021/je400184t).
Numbers after ± are expanded uncertainties.

Test: xn = mol fraction of the nth substance listed
Conditions: 101 kPa, Liquid, Vibrating tube method

Cc1ccccc1 [toluene] + CCCCCCC
298.15 K
Conditions	mass density [kg/m3]
x2 = 0	862.222 ± 0.21
x2 = 0.00177	861.767 ± 0.21
x2 = 0.01118	859.353 ± 0.21
x2 = 0.0267	855.387 ± 0.22
x2 = 0.05849	847.515 ± 0.22
x2 = 0.1297	830.567 ± 0.22
x2 = 0.2059	813.369 ± 0.22
x2 = 0.2752	798.596 ± 0.23
x2 = 0.3604	781.402 ± 0.23
x2 = 0.4494	764.554 ± 0.23
x2 = 0.4718	760.485 ± 0.24
x2 = 0.6659	727.559 ± 0.25
x2 = 0.8166	704.661 ± 0.25
x2 = 0.9094	691.588 ± 0.26
x2 = 0.9624	684.471 ± 0.26
x2 = 0.9968	679.955 ± 0.26

NCCO [2-aminoethan-1-ol] + c1ccncc1
mass density [kg/m3]
Conditions	288.15 K	298.15 K	353.15 K
x2 = 0	1019.87 ± 0.2	1012.12 ± 0.2	968.332 ± 0.2
x2 = 0.01329	–	1011.37 ± 0.2	–
x2 = 0.02208	1018.83 ± 0.2	–	966.667 ± 0.2
x2 = 0.03932	1018.01 ± 0.2	1010.09 ± 0.2	965.353 ± 0.2
x2 = 0.06973	1016.73 ± 0.2	1008.71 ± 0.2	963.408 ± 0.2
x2 = 0.1369	1014.03 ± 0.2	1005.81 ± 0.2	959.323 ± 0.2
x2 = 0.2147	1011.06 ± 0.2	1002.59 ± 0.2	954.908 ± 0.2
x2 = 0.3455	1006.12 ± 0.2	997.334 ± 0.2	947.883 ± 0.21
x2 = 0.4414	1002.7 ± 0.2	993.687 ± 0.2	943.004 ± 0.21
x2 = 0.5819	998.105 ± 0.2	988.794 ± 0.2	936.439 ± 0.21
x2 = 0.6767	995.328 ± 0.2	985.804 ± 0.2	932.426 ± 0.21
x2 = 0.79	992.252 ± 0.2	982.566 ± 0.2	928.035 ± 0.21
x2 = 0.878	990.097 ± 0.2	980.237 ± 0.2	924.973 ± 0.21
x2 = 0.96	988.258 ± 0.2	–	922.401 ± 0.21
x2 = 0.9817	–	977.805 ± 0.2	–

CN(CCO)CCO [N-methyldiethanolamine] + c1ccncc1
mass density [kg/m3]
Conditions	288.15 K	298.15 K	353.15 K
x2 = 0	1046.36 ± 0.21	1036.81 ± 0.21	994.015 ± 0.2
x2 = 0.01699	–	–	992.733 ± 0.2
x2 = 0.04	–	1034.22 ± 0.21	–
x2 = 0.07502	1041.45 ± 0.21	–	988.525 ± 0.2
x2 = 0.1	–	1030.39 ± 0.2	–
x2 = 0.1844	1034.44 ± 0.2	–	980.64 ± 0.2
x2 = 0.2183	–	1023.03 ± 0.2	–
x2 = 0.3178	1025.81 ± 0.2	–	971.05 ± 0.2
x2 = 0.33	–	1016.1 ± 0.2	–
x2 = 0.4447	1018 ± 0.2	–	961.905 ± 0.2
x2 = 0.5265	–	1004.45 ± 0.2	–
x2 = 0.5708	1010.68 ± 0.2	–	952.805 ± 0.21
x2 = 0.6	–	1000.15 ± 0.2	–
x2 = 0.6945	1003.92 ± 0.2	–	943.917 ± 0.21
x2 = 0.7687	–	990.603 ± 0.2	–
x2 = 0.8095	997.843 ± 0.2	–	935.616 ± 0.21
x2 = 0.8886	993.774 ± 0.2	–	930.006 ± 0.21
x2 = 0.9059	–	983.032 ± 0.2	–
x2 = 0.9582	–	980.414 ± 0.2	–
x2 = 0.9597	990.221 ± 0.2	–	924.867 ± 0.21
